This note sets out measurements from patent US20260174677A1, “METHODS OF TREATING INSULIN RESISTANCE AND ASSOCIATED DISORDERS” (The University of Melboune, priority 2022, published 2026).

The nature of experiment [1]: I.C.V. fluorosamine in mouse model of late-stage type-2 diabetes (HFHS plus low dose streptozotocin). The class given is in vivo. As to conditions: I.C.V. daily for 14 days, HFHS plus low dose streptozotocin mice. The protocol:
Mice were maintained on a 12 h light-dark cycle in a temperature-controlled high-barrier facility with free access to food and water per NHMRC Australian Code of Practice for the Care and Use of Animals. C57BL/6J and Balb/C mice were sourced from the Animal Resources Centre, Australian, whereas Agrp-IRES-Cre (Strain #:012899), db/db (strain #: 000697), Npy-GFP (Strain #:006417), Pomc-GFP (Strain #:009593), LSL-Cas9 (Strain #:028551), NZO (Strain #:002105) mice were sourced from Jackson Laboratories, USA. […]
Metabolic measurements were undertaken in the Melbourne Mouse Metabolic Phenotyping Platform (The University of Melbourne, Australia). […] The areas under glucose excursion curves were determined and expressed as mmol/1×min. Fasted (12 h fast) plasma insulin or glucose levels were determined using a Rat/Mouse Insulin ELISA (EZRMI-13K, Merck Millipore, CA) or an Accu-Check glucometer respectively. The HOMA-IR was calculated using the equation [(glucose×insulin)/405]. Adiposity was measured using TD-NMR minispec (Bruker Optics Inc., Billerica, MA). […]

A short description of experiment [2]: I.C.V. fluorosamine: hyperinsulinemic-euglycemic clamps in weight matched obese mice. The class given is in vivo, mouse. As to conditions: I.C.V. daily for 3 days. The protocol:
For hyperinsulinemic-euglycemic clamps, mice were anesthetised under isoflurane and the right jugular vein was catheterised for infusions, as described previously by Dodd et al., 2018. Catheters were attached to an implant button (BMSW25, RWD Life Sciences, Shenzhen, China). Implant buttons were capped allowing for group mousing of mice and catheters were kept patent by flushing daily with 40 μL saline containing 200 units/mL heparin. On the day of the experiment, food was removed at 7:00 A.M. After 3.5 h fasting, a primed (1 min, 1.25 uCi/min) continuous infusion (0.05 uCi/min) of [3-3H]glucose (NET331A001MC, PerkinElmer, MA) was administered to measure whole-body glucose turnover, as described previously by Dodd et al., 2018. 90 minutes later, mice received a 40 mU/Kg insulin bolus over 10 mins which was followed by continuous insulin infusion (4 mU/kg/min in gelofusine). Euglycemia (˜8-10 mM blood glucose) was maintained by a variable infusion of a 30% glucose solution.
Tail blood samples were collected during steady-state conditions (Ra=Rd) and at 80, 90, 100, 110, and 120 min for determination of Rd and Ra, as described above. At 120 mins, a 13 uCi bolus of [^14C]-2-deoxy-D-glucose (NEC495A250UC, PerkinElmer, MA) was injected into the jugular vein, and blood was sampled at 122, 125, 135, 145, and 155 min. […]

Experiment [3] in a line: Intranasal PZ6005 in diet-induced obese mice: food intake and energy expenditure. The format is in vivo, mouse. As to conditions: I.N. 1 or 5 mg/animal/day, Day 8-Day 11 of treatment, diet-induced obesity. The protocol:
Mice were acclimated for 24 h and then monitored for 48 h in an environmentally controlled Promethion Metabolic Screening System (Sable Systems International, NV) fitted with indirect open circuit calorimetry, food consumption and activity monitors to measure activity, caloric intake and energy expenditure. Respiratory quotients were calculated as the ratio of CO2 production over O2 consumption respiratory exchange ratio and energy expenditure was calculated using the Weir equation (Kcal h-1=60×(0.003941×VO2+0.001106×VCO2). To account for difference in body mass/composition energy expenditure was analysed and adjusted using ANCOVA using scripts available at the National Mouse Metabolic Phenotyping Centers (MMPC, Nashville, TN, USA) Energy Expenditure Analysis Page (https://www.mmpc.org/shared/regression.aspx).
Conscious mice were restrained by scruffing and inverted parallel to the floor with the chin at ˜180-degree angle with the neck. Using a 10 μL tip, a pipettor was loaded with 5 μl of vehicle (ddH2O) or fluorosamine (1 mg/animal in 20 μl or 5 mg/animal in 20 μl). The tip of the filled pipettor was placed near the left nostril at a 45-degree angle, and the drug was ejected to form a small 5 μl droplet at tip for the mouse to inhale. […]

With `CC(=O)NC1C(OC(C)=O)OC(COC(C)=O)[C@@H](F)C1OC(C)=O` (stereo partly shown) [fluorosamine, per-O-acetylated-4-F-N-acetylglucosamine], in experiment [1], the “remission of metabolic disease (daily blood glucose, glucose tolerance)” value was “promote the remission of metabolic disease”. Also, the “whole-body insulin sensitivity (GIR) in clamp” value in experiment [2] is listed as “enhancement of whole-body insulin sensitivity”. In experiment [3], the energy expenditure result is listed as “increases energy expenditure” and the food intake result is “decreases food intake”.
